Results as given in patent US9426950B2, “Production of Deschampsia antartica in bioreactors” (priority 2012, dated 2016).

Columns and labels:
D. antarctica explants [1] = test: Effect of growth regulators on D. antarctica's morphogenic response and biomass production in bioreactors (SIT); assay type: in vivo, Deschampsia antarctica; conditions: for reproduction rate / organogenic response: SIT method (FIG. 7); for survival of explants compared with the control treatment: growth regulators in the culture medium, bioreactors (FIG. 6); for type of morphogenic response (roots / shoots): AIB with BAP or alone, BAP alone or ratio favoring BAP; for biomass production: treatments supplemented with growth regulators (FIG. 9)
Excerpt: In order to determine the appropriate composition of growth regulators for explant propagation and to establish the differences in the physical state of the liquid culture medium compared to the semisolid medium, a comparative study was done on the effect of growth regulators on the culture medium using the SIT method and the conventional propagation method, SSS. To determine the growth regulators' effect on D. antarctica's morphogenic response and biomass formation, a study was done on the effect of combining the cytokinin 6-benzylaminopurine (6-BAP) (0.0; 0.5; 1.0; and 3.0 mgL-1) with the auxin indolbutyric acid (AIB) (0.0; 0.1; 0.25; and 0.5 mgL^−1). Likewise, a study was done of the effect of a set concentration of gibberellic acid (3 mgL-1) combined with the auxins and cytokinins and their isolated effect in the culture medium. Gibberellic acid is associated with the elongation of tissues, and it could play a significant role in biomass growth.
For each bioreactor, 50 to 60 explants with the phenotype characteristics indicated in the osmotic agent test were used in 1000 ml of nutritive medium for each condition, keeping an initial treatment weight of 2 grams. For the SSS method, 25 explants were used in Petri dishes with 40 ml of a medium gelled with agar (Gelzan′) at a rate of 2.5 gL^−1.
A 12-hour immersion frequency was used, with immersion times of 3 minutes and aeration times of 5 minutes.
For this test, the total weight of inoculated biomass was adjusted at 2.0 g per bioreactor. Therefore, the number of plants per bioreactor varied, and the distribution of weight and size during inoculation was random. The experimental unit was the explant.
The effect of the growth regulators was evaluated with the following variables: Increase in fresh weight (FW) per treatment, increase in fresh weight/explant, reproduction rate, survival of explants, and degree of oxidation; all of the same criteria used in the test with osmotic agents.
A sample of 25 explants was taken for each treatment in order to measure the different variables.

D. antarctica explants [2] = test: Effect of osmoregulating agents on D. antarctica explants cultivated in temporary immersion bioreactors; assay type: in vivo; conditions: glucose 5 gL−1; mannitol 5 gL−1; PEG 5 gL−1 and 20 gL−1 (FIG. 4)
D. antarctica explants [3] = test: as above; assay type: in vivo; conditions: for degree of oxidation (scale of Table 1): in vivo; for fresh weight: glucose 5 gL−1 and 20 gL−1, sodium chloride 5 gL−1 (FIG. 5)
Excerpt: The Deschampsia antarctica plants were reproduced in bioreactors with a liquid culture medium. The nutritive growth conditions were formulated using the inorganic salts proposed by (Murashige, 1973) (MS), supplemented with saccharose 30 gL^−1. In order to determine the conditions needed to obtain high growth and morphophysiological development rates for the tissues, an evaluation was done of the immersion frequency conditions and the addition of osmotic and growth regulating agents.
The regulation of the culture medium's hydric potential determines the quality of the morphogenic response of the plants being cultivated in vitro, especially in systems using liquid culture media (Hua et at, 2010; Stanly et al., 2010). The experiment consisted of evaluating the effect of osmoregulating agents at different concentrations [mannitol (10 and 20 gL-1), glucose (5 and 20 gL-1), polyethylene glycol (5 and 10 gL^−1), and NaCl (5, 10, and 20 gL-1)] on the morphogenic response and biomass production of D. antarctica.
In each bioreactor, 100 plants from the semisolid culture (SSS) that were more than 2 cm tall, with well-developed, expanded leaves, were inoculated in triplicate. The dead leaves and oxidized tissue that grows around the crown of the plants were removed. The bioreactors' initial volume was adjusted to 1000 ml per cultivation jar. A 12-hour immersion frequency was used, with an immersion time of 300 seconds and an aeration time of 60 minutes.
The average initial weight of the explants in each treatment was taken. The repetitions were distributed randomly in the culture trays.
The effect of the osmoregulators was evaluated with the following variables: Increase in fresh weight (FW) per treatment, increase in fresh weight per explant, multiplication rate, explant survival rate, and degree of oxidation.
To calculate survival, live explants were assigned a value of 1, while dead explants were assigned a value of 0. The data was entered into a double-entry matrix where the osmoregulator-type factor is compared to the survival variable. A scale of the explants' damage from phenolization was developed to calculate the degree of oxidation, and is described in Table 1.
The degree of oxidation was calculated using the Townsend and Neuberger formula (1943), which considers the frequency and intensity with which the explant damage occurs, using the equation:
[formula] Where: • P=weighted degree of severity of oxidation • n=number of explants for each category in the scale • v=numerical value of each category • CM=largest category • N=total number of explants in the sample
The percentage of explants oxidized in treatment was also calculated, using the equation:
[formula] Where: • % O=percentage of explants oxidized in each treatment • EO=number of oxidized explants in the sample • ET=total number of explants evaluated in the sample
To determine the average increase in fresh weight (IFW) in each treatment, the initial weight of the inoculated explants in each bioreactor was taken (including an experimental unit) and then averaged. The fresh weight data was collected at the end of each repetition in each treatment. The increase in fresh weight was calculated using the equation: IFW=FWf−FWo Equation 3 Where: • IFW=average fresh weight increase in each treatment • FWf=average final fresh weight of the biomass in each treatment • FWo=average initial fresh weight of the biomass in each treatment
To determine the average fresh weight increase per explant (IFWe) for each treatment, each explant was measured at the beginning and end of the test for each repetition, and the averages were calculated. The fresh weight increase was calculated using the equation: IFWe=FWef−FWeo Equation 4 Where: • IFWe=average fresh weight increase per explant • FWef=average final fresh weight of the biomass in each bioreactor • FWeo=average initial fresh weight of the biomass in each bioreactor. […]

| SMILES | reproduction rate / organogenic response (D. antarctica explants [1]) | survival of explants compared with the control treatment (D. antarctica explants [1]) | reproduction rate (D. antarctica explants [2]) | degree of oxidation (scale of Table 1) (D. antarctica explants [3]) | type of morphogenic response (roots / shoots) (D. antarctica explants [1]) | biomass production (D. antarctica explants [1]) | fresh weight (D. antarctica explants [3]) | further results |
| --- | --- | --- | --- | --- | --- | --- | --- | --- |
| C=C1C[C@]23C[C@@]1(O)CC[C@H]2[C@@]12C=C[C@H](O)[C@@](C)(C(=O)O1)[C@H]2[C@@H]3C(=O)O [GA3, gibberellic acid] | significantly reduced the reproduction rate | significantly lower than the control treatment |  |  |  |  |  |  |
| OC[C@@H](O)[C@@H](O)[C@H](O)[C@H](O)CO [mannitol] |  |  | statistically different from the control treatment | degree 1 |  |  |  |  |
| O=C(O)CCCc1c[nH]c2ccccc12 [AIB, indolbutyric acid] | did not have a significant effect on the reproduction rate | Neither the addition of AIB or BAP, nor the combination of these growth regulators, significantly increased the survival |  |  | induced root formation | increased significantly |  |  |
| O=C[C@H](O)[C@@H](O)[C@H](O)[C@H](O)CO [glucose] |  |  | greatest | degree 1 |  |  | increased significantly | survival rate (D. antarctica explants [3]; glucose at 5 gL−1, temporary immersion bioreactors): 100%; reduction of the explants' survival rate (D. antarctica explants [3]; glucose concentration increased to 20 gL-1): up to 50%; explants' growth (D. antarctica explants [3]; increased concentrations of glucose): did not significantly affect the explants' growth |
| c1ccc(CNc2ncnc3nc[nH]c23)cc1 [BAP, 6-benzylaminopurine] | sufficient to induce efficient organogenic responses | Neither the addition of AIB or BAP, nor the combination of these growth regulators, significantly increased the survival |  |  | induced only shoot formation or the development of aerial biomass | increased significantly |  |  |
| [Cl-].[Na+] [sodium chloride] |  |  |  |  |  |  | increased significantly | decrease of fresh weight (D. antarctica explants [3]; increased concentration of sodium chloride (FIG. 5)): 60%; survival of the explants (D. antarctica explants [3]; three concentrations of sodium chloride studied (5, 10, 20 gL-1)): significantly affected the survival of the explants |
